The record followed here is US5674849A, “Anti-viral compositions” (priority 1995, dated 1997).

This assay deals with HIV-1 strain NL4-3. Description: p24 antigen inhibition in HIV-1 infected HUT-78 cells. It counts as cell-based. The settings on record: for Expected % inhibition: assuming additive effect; for Observed % inhibition: p24, day 9. As for the experimental part:
Control cells were pretreated in 3.5 ml maintenance media under the same conditions.
The tubes were centrifuged at 1200 rpm for 5 minutes to pellet the cells and each pellet was resuspended in 1 ml of stock HIV-1 strain NL4-3 (obtained from AIDS Research and Reference Reagent Program, Rockville, Md.) to obtain an MOI (multiplicity of infection) of about 0.05. The cells were incubated at 37° C. for 1 hour to allow viral adsorption to occur. […] These cells were centrifuged as above, the resulting pellets were resuspended in 1 ml of media and incubated for 1 hour at 37° C.
AZT (Burroughs Wellcome Co.) thawed from sterile stock aliquots was serially diluted in media and dispensed at a volume of 100 μl per well of microtiter plate for the cytotoxicity control wells, compound color control wells and the test wells. Treated and untreated infected and uninfected cells were dispensed at a volume of 100 μl per well. […]
The plates were incubated by 37° C. in 5% CO2.
On the 9th day, 20 μl supernatant was removed from above settled cells in the Test, Virus Control and Cell Control wells. The supernatant was assayed for the presence of p24 antigen using a Coulter Corporation p24 Antigen Test Kit in accordance with the manufacturter's directions.
% Observed Inhibition=[(VC-Test)/(VC)]×100
where VC is the mean p24 of the Virus Control wells; and
Test in the mean p24 of the Test wells.
% Expected Inhibition=X+Y(100-X)
Y is observed % inhibition of AZT.

As to `CC(=O)N[C@H](CCCNC(=N)N)C(=O)N[C@H](CCCNC(=N)N)C(=O)N[C@H](CCCNC(=N)N)C(=O)N[C@H](CCCNC(=N)N)C(=O)N[C@H](CCCNC(=N)N)C(=O)N[C@H](CCCNC(=N)N)C(=O)N[C@H](CCCNC(=N)N)C(=O)N[C@H](CCCNC(=N)N)C(=O)N[C@H](CCCNC(=N)N)C(N)=O` [4C, acetyl-[D-Arg]9 -NH2], the Expected % inhibition is reported as -412.7% (AZT 0 nM, 4C 0.001 μM); -256.2% (AZT 0 nM, 4C 0.003 μM); -22.8% (AZT 0 nM, 4C 0.01 μM); 5.9% (AZT 0 nM, 4C 0.03 μM); -177.0% (AZT 0 nM, 4C 0.1 μM); 25.5% (AZT 0 nM, 4C 0.3 μM). In addition, the Expected % inhibition reads like this: (AZT 0 nM, 4C 10 μM) 21.9%; (AZT 0 nM, 4C 30 μM) 26.5%. The Observed % inhibition runs as follows: (AZT 0 nM, 4C 0.001 μM) -412.7%; (AZT 0 nM, 4C 0.003 μM) -256.2%; (AZT 0 nM, 4C 0.01 μM) -22.8%; (AZT 0 nM, 4C 0.03 μM) 5.9%; (AZT 0 nM, 4C 0.1 μM) -177.0%; (AZT 0 nM, 4C 0.3 μM) 25.5%. In addition, the Observed % inhibition (AZT 0 nM, 4C 10 μM) is on record as 21.9% and the Observed % inhibition (AZT 0 nM, 4C 30 μM) is listed as 26.5%.
As for `Cc1cn([C@H]2C[C@H](N=[N+]=[N-])[C@@H](CO)O2)c(=O)[nH]c1=O` [AZT, azidothymidine, reference compound], the Expected % inhibition by setting is: (AZT 10 nM, 4C 0 μM) -406.1%; (AZT 30 nM, 4C 0 μM) -437.4%; (AZT 100 nM, 4C 0 μM) -14.2%; (AZT 300 nM, 4C 0 μM) -9.8%; (AZT 1000 nM, 4C 0 μM) -7.7%. In addition, the Observed % inhibition is on record as -406.1% (AZT 10 nM, 4C 0 μM); -437.4% (AZT 30 nM, 4C 0 μM); -14.2% (AZT 100 nM, 4C 0 μM); -9.8% (AZT 300 nM, 4C 0 μM); -7.7% (AZT 1000 nM, 4C 0 μM).
